Test results from patent publication US20100152531A1, “IMPLANTABLE MEDICAL DEVICE FOR DRUG DELIVERY AND METHOD OF USE” (Paracor Medical, Inc., priority 2008, published 2010).
Several values for one entry are separate records, joined by “and”; a condition that tells them apart may be missing. Identical values can stand only once. Like-named read-outs stand apart in the source and are kept apart here.

Tests used:
[1] = Half life of NONOates (diazeniumdiolates) at 37° C., pH 7.4; format: physicochemical
Text: Diazeniumdiolates, more commonly referred to as NONOates, have been extremely useful in the investigation of the biological effects of nitric oxide (NO) and related nitrogen oxides. […] FIG. 55 illustrates an exemplary chemical reaction.

[2] = tested on: rats with MI; settings: cited from earlier work
[3] = oral, cited from earlier work
[4] = tested on: mice with aortic banding; settings: mouse, in vivo; cited from earlier work
[5] = target: T1, aldosterone receptors (Homo sapiens, UniProt P08235); settings: cited from earlier work
T1 construct: host or cells: heart failure patients (in vivo)
T1 sequence (P08235 1-984): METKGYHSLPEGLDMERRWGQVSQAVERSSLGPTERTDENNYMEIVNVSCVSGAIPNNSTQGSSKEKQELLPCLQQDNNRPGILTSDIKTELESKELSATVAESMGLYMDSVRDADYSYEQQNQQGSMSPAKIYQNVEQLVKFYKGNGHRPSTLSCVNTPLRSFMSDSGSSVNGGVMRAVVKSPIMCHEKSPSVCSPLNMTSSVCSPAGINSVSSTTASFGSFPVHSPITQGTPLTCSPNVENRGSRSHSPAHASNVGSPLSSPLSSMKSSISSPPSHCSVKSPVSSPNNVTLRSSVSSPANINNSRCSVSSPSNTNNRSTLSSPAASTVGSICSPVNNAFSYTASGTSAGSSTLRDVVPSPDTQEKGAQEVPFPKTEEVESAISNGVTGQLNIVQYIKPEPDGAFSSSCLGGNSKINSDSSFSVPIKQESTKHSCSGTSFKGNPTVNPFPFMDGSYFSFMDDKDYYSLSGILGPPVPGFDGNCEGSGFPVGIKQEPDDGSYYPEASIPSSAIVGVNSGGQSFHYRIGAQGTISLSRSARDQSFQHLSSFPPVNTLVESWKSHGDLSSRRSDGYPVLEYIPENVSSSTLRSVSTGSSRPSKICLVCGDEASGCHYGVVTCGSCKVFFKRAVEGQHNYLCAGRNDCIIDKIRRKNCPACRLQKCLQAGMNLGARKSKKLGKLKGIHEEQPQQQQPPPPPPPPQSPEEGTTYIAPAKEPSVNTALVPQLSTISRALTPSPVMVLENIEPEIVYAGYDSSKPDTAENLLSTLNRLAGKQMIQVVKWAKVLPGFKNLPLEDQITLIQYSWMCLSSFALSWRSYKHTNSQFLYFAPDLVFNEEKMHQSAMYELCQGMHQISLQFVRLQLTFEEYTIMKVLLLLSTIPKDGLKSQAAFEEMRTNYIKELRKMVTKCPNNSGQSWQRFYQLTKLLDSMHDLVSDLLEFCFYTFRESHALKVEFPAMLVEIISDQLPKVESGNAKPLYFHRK

[6] = cited from earlier work
[7] = tested on: coronaries of pigs; settings: delivered intrapericardially; cited from earlier work

With `CN(C)/[N+]([O-])=N/[O-].[Na+]` [Compound 2, Sodium (Z)-1-(N,N-Dimthylanimo)diazen-1-ium-1,2-dilate] the “Half Life 37° C., pH 7.4” value [1] was 2 min.
In the case of `CO[C@H]1C[C@@H]2CC[C@@H](C)[C@@](O)(O2)C(=O)C(=O)N2CCCC[C@H]2C(=O)O[C@H]([C@H](C)C[C@@H]2CC[C@@H](OCCO)[C@H](OC)C2)CC(=O)[C@H](C)/C=C(\C)[C@@H](O)[C@@H](OC)C(=O)[C@H](C)C[C@H](C)/C=C/C=C/C=C/1C` [everolimus], the EF ([2]; compared to untreated MI rats) is listed as “significant increase”, the LV end-diastolic diameter ([2]; compared to untreated MI rats) is listed as “significant reduction” and the “reduction of myocyte size” value ([2]; rat, in vivo) is listed as 33%.
In the case of `CO[C@H]1C[C@@H]2CC[C@@H](C)[C@@](O)(O2)C(=O)C(=O)N2CCCC[C@H]2C(=O)O[C@H]([C@H](C)C[C@@H]2CC[C@@H](O)[C@H](OC)C2)CC(=O)[C@H](C)/C=C(\C)[C@@H](O)[C@@H](OC)C(=O)[C@H](C)C[C@H](C)/C=C/C=C/C=C/1C` [sirolimus], the “patients who experienced side effects (mild to severe)” value ([3]; 2 mg daily) is given as 43%, the “patients who experienced side effects (mild to severe)” value ([3]; 5 mg daily) is given as 66% and the “body weight, lung weight, or liver weight” value [4] is given as “without affecting”.
In the case of `NCCN(CCN)[N+]([O-])=NO` [Compound 5, 1-[N-(2-Aminoethyl)-N-(2-ammonioethyl)amino]diazen-1-ium-1,2-diolate], the half-life ([1]; buffer) is reported as 1200 min.
In the case of `CC(=O)S[C@@H]1CC2=CC(=O)CC[C@]2(C)[C@H]2CC[C@@]3(C)[C@@H](CC[C@@]34CCC(=O)O4)[C@H]12` [spironolactone], the “blocking the aldosterone receptors and decreasing atrial natriuretic peptide concentrations” value ([5]; dose of 12.5 to 25 mg daily) is given as “effective”, the “incidence of serious hyperkalemia” value ([5]; high-risk heart failure patients, with ACE inhibitor) is given as “low incidence” and the “risk of both morbidity and death” value ([5]; high-risk heart failure patients) is given as “significantly reduced”. For the same molecule, the “daily dose at which serious hyperkalemia occurs most frequently” value ([5]; in vivo) was no less than 50 mg, the blood pressure decrease ([6]; doses above 150 mg) was “no additional decrease” and the incidence of gynecomastia ([6]; doses of 50 mg or less) was 8.9%. For the same molecule, the incidence of gynecomastia ([6]; doses of 150 mg or higher) was 52.2%, the blood pressure decrease ([6]; doses of 25 to 50 mg) was 5.3% and 8.5% and the blood pressure decrease ([6]; doses of 75 to 100 mg) was 12.4% and 12.2%.
With `CN(C)[N+]([O-])=N[O-].[Na+]` [Compound 1, Sodium 1-(N,N-Dimthylanimo)diazen-1-ium-1,2-dilate] the “Half Life 37° C., pH 7.4” value [1] was 0.2 min.
In the case of `CC(=O)O[C@H]1C(=O)[C@@]2(C)[C@H]([C@H](OC(=O)c3ccccc3)[C@]3(O)C[C@H](OC(=O)[C@H](O)[C@@H](NC(=O)c4ccccc4)c4ccccc4)C(C)=C1C3(C)C)[C@]1(OC(C)=O)CO[C@@H]1C[C@@H]2O` [Paclitaxel], the “neointimal proliferation in the coronaries in response to balloon injury” value [7] is listed as “inhibit neointimal proliferation”.
In the case of `NCCCN(CCCN)/[N+]([O-])=N/O` [Compound 4], the “Half Life 37° C., pH 7.4” value [1] is reported as 3 hrs.
In the case of `COCON=[N+]([O-])N1CCNCC1` [Compound 7, O^2-Methozymethyl 1-(Piperazin-1-yl)diazen-1-ium-1,2-diolate], the “Half Life 37° C., pH 7.4” value [1] is reported as 17 days.
